Measured values: the supplement of paper PMC10307832

How the values were obtained:
Experiment in all cases: relative viability (nuclei count vs DMSO), 5 days (fraction); higher = more cells survive
DM3189 + OSI-027 = compound: C1CN(CCN1)C2=CC=C(C=C2)C3=CN4C(=C(C=N4)C5=CC=NC6=CC=CC=C56)N=C3 [DM3189] + COc1cccc2cc(-c3nc([C@H]4CC[C@H](C(=O)O)CC4)n4ncnc(N)c34)[nH]c12 [OSI-027] (partner 0.5 µM)
Outline: (§1)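 Lung cancer cell lines were seeded in 1536-well plates and dosed by pin tool the next day, with either a single drug or a fixed anchor-drug dose combined with five library-drug doses (not always all listed) spaced in √10 steps. Five days later, one step fixed the cells and stained their nuclei (final 0.05% Triton X-100, 1% formaldehyde, 1 ug/ml Hoechst), and nuclei were counted on 4× images. Relative viability is the nuclei count in treated wells divided by the count in vehicle wells, and each value is the median of duplicate plates.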

DM3189 + Trametinib = compound: C1CN(CCN1)C2=CC=C(C=C2)C3=CN4C(=C(C=N4)C5=CC=NC6=CC=CC=C56)N=C3 [DM3189] + CC(=O)Nc1cccc(-n2c(=O)n(C3CC3)c(=O)c3c(Nc4ccc(I)cc4F)n(C)c(=O)c(C)c32)c1 [Trametinib] (partner 0.02 µM)
Outline: as §1

DM3189 + Luminespib = compound: C1CN(CCN1)C2=CC=C(C=C2)C3=CN4C(=C(C=N4)C5=CC=NC6=CC=CC=C56)N=C3 [DM3189] + CCNC(=O)c1noc(-c2cc(C(C)C)c(O)cc2O)c1-c1ccc(CN2CCOCC2)cc1 [Luminespib] (partner 0.01 µM)
Outline: as §1

DM3189 + Vorinostat = compound: C1CN(CCN1)C2=CC=C(C=C2)C3=CN4C(=C(C=N4)C5=CC=NC6=CC=CC=C56)N=C3 [DM3189] + O=C(CCCCCCC(=O)Nc1ccccc1)NO [Vorinostat] (partner 1 µM)
Outline: as §1

DM3189 + AZD7762 = compound: C1CN(CCN1)C2=CC=C(C=C2)C3=CN4C(=C(C=N4)C5=CC=NC6=CC=CC=C56)N=C3 [DM3189] + NC(=O)Nc1cc(-c2cccc(F)c2)sc1C(=O)N[C@H]1CCCNC1 [AZD7762] (partner 0.2 µM)
Outline: as §1

Cell Line | relative viability (DM3189 + OSI-027; first compound 0.08 µM) | relative viability (DM3189 + OSI-027; first compound 0.253 µM) | relative viability (DM3189 + OSI-027; first compound 0.8 µM) | relative viability (DM3189 + OSI-027; first compound 2.53 µM) | relative viability (DM3189 + Trametinib; first compound 0.08 µM) | relative viability (DM3189 + Trametinib; first compound 0.8 µM) | relative viability (DM3189 + Trametinib; first compound 2.53 µM) | relative viability (DM3189 + Luminespib; first compound 0.08 µM) | relative viability (DM3189 + Luminespib; first compound 0.253 µM) | relative viability (DM3189 + Luminespib; first compound 0.8 µM) | relative viability (DM3189 + Luminespib; first compound 2.53 µM) | relative viability (DM3189 + Vorinostat; first compound 0.08 µM) | relative viability (DM3189 + Vorinostat; first compound 0.253 µM) | relative viability (DM3189 + Vorinostat; first compound 0.8 µM) | relative viability (DM3189 + Vorinostat; first compound 2.53 µM) | relative viability (DM3189 + AZD7762; first compound 0.08 µM) | relative viability (DM3189 + AZD7762; first compound 0.8 µM) | relative viability (DM3189 + AZD7762; first compound 2.53 µM) | relative viability (DM3189 + Trametinib; first compound 0.253 µM) | relative viability (DM3189 + AZD7762; first compound 0.253 µM)
EKVX | 0.769 | 0.511 | 0.729 | 0.623 | 0.325 | 0.328 | 0.338 | 0.96 | 0.874 | 0.908 | 0.962 | 0.856 | 0.72 | 0.678 | 0.62 | 0.809 | 0.623 | 0.638 | – | –
EMC-BAC-2 | 0.403 | 0.341 | 0.359 | 0.418 | 0.925 | 0.891 | 1.04 | 1.24 | 1.07 | 1.06 | 1.25 | 0.53 | 0.439 | 0.477 | 0.741 | 1.26 | 0.976 | 1.05 | 0.877 | 1.03
EPLC-272H | 0.356 | 0.261 | 0.238 | 0.254 | 0.285 | 0.267 | 0.322 | 0.738 | 0.317 | 0.25 | 0.281 | 0.386 | 0.517 | 0.247 | 0.402 | 0.174 | 0.276 | 0.186 | 0.326 | 0.219
H3255 | 0.875 | 0.541 | 0.625 | 0.611 | 0.789 | 0.513 | 0.732 | 1.09 | 0.957 | 0.799 | 0.951 | 1.11 | 0.826 | 0.845 | 0.89 | 1.14 | 0.88 | 0.943 | 0.731 | 0.883
HARA | 0.713 | 0.525 | 0.292 | 0.539 | 0.674 | 0.712 | 0.944 | 0.865 | 0.784 | 0.55 | 1.15 | 0.596 | 0.539 | 0.606 | 0.622 | 0.263 | 0.161 | 0.302 | 0.736 | 0.364
HCC-15 | 0.757 | 0.599 | 0.524 | 0.673 | 0.447 | 0.406 | 0.414 | 0.355 | 0.399 | 0.391 | 0.369 | 1.03 | 0.803 | 0.732 | 0.815 | 1.19 | 1.08 | 1.24 | 0.431 | 1.14
HCC-44 | 0.631 | 0.482 | 0.373 | 0.596 | 1.07 | 0.897 | 1.2 | 1.06 | 0.879 | 0.856 | 0.97 | 1.08 | 1.14 | 0.921 | 1.08 | 0.984 | 0.92 | 0.996 | 1.09 | 1.03
HCC-78 | 0.383 | 0.35 | 0.371 | 0.358 | 0.64 | 0.541 | 0.624 | – | – | – | – | 0.41 | 0.453 | 0.51 | 0.557 | 0.644 | 0.497 | 0.531 | 0.588 | 0.546
